Tested on: platelets
Experiment: Microscopic platelet degranulation at 5° C. with cryoprotective agents
Format: cell-based, human
Design: key to effect on microscopic degranulation, 0.75% / effect on microscopic degranulation, 0.38% / effect on microscopic degranulation, 3% / effect on microscopic degranulation, 1.5% / effect of cryoprotective on platelet degranulation, 3% / effect of cryoprotective on platelet degranulation, 1.5% / effect of cryoprotective on platelet degranulation, 0.75% / effect of cryoprotective on platelet degranulation, 0.38%: none: None = no effect detected ~90% complete degranulation; fair: Fair = 25 to 50% of platelets are non-degranulated; good: Good = >80 are non-degranulated
Conditions: for effect of cryoprotective on platelet degranulation, 0.38% / effect on microscopic degranulation, 0.38%: 0.38% final in ACD-Platelet mixture; for effect of cryoprotective on platelet degranulation, 0.75% / effect on microscopic degranulation, 0.75%: 0.75% final in ACD-Platelet mixture; for effect of cryoprotective on platelet degranulation, 1.5% / effect on microscopic degranulation, 1.5%: 1.5% final in ACD-Platelet mixture; for effect of cryoprotective on platelet degranulation, 3% / effect on microscopic degranulation, 3%: 3% final in ACD-Platelet mixture; for platelet colour / granule preservation: 5° C.
Procedure: Platelet aggregation using epinephrine. Ten ml of 24 hr old platelet residual was derived from one platelet unit and split into two 5 ml aliquots in 50 ml tubes. One sample received 10% phosphate buffered saline (PBS) and one 10% PBS containing PEG400 such that the final PEG concentration was 2%. These samples were placed on a flat-bed rotator with a 1 inch stroke, at 70 cycles per min, at 5° C. for 7 days. 100 ul of these platelet suspensions were added to wells of a 96 well U bottom plate. Epinephrine 0.1 mg/ml (Pharmaceutical NDC 0409-4921-34-44-048-DK) was diluted with PBS and 100 ul was added to test wells to give a finial concentration of 10 mcg/ml. The plate was rotated overnight to allow aggregation. The extent of aggregation was read using an ELISA plate reader (Molecular Devises, Vmax) at 690 nm wavelength. Platelets, with and without PEG, were also aggregated by the addition of 10% H2O2. Hydrogen peroxide is not an agonist for the platelet receptor; however exposure to hydrogen peroxide mimics the platelet storage lesion though membrane ageing. In this study, the inventors tested 2 day old residual platelets form one donor unit by splitting the material in to a 24 well cluster plate. Control platelets had 10% PBS added and were compared to test compositions with the addition of 10% volume PBS plus 2% PEG-400. 10% v/v (Hydrogen peroxide 3%) was then added to all wells simultaneously using a multichannel pipette. Wells were photographed following 1 hr room temperature incubation (see FIGS. 2A-B and FIG. 3). Table 3 presents additional cryoprotective agents scored for the effect on microscopic degranulation (20× high contrast lighting as above).
The following methods were used: “Fresh” in-date 2 day old blood bank O pos random donor platelets were recovered from segments and held in a 50 cc tub with rotation 22° C., 70 cycles/min 1 inch stroke) for 30 min. Glycerol (Fisher tissue grade product) was obtained from virology diluted to 50% in sterile saline and filter sterilized. 12 g glycerol were added to 12 ml sterile saline (BioMeriux—vitek saline) and mixed. This mixture was filter sterilized using a 0.45 um filter (CELLULOSE ACETATE). Dilutions were made of the above saline to a concentration 50%, 25%, 12%, 6%, […]. 200 ul of platelets were withdrawn slowly (8 sec) and add slowly to 7 sterile 2 ml microcentrifuge tubes. 200 ul of 50%, 25%, 12% 6%, and 3% glycerol/saline and two controls using 200 ul saline, were then added to the platelets with slow mixing. Thus the final glycerol concentrations=25, 12, 6, 3, and 1.5. These aliquots were allowed to rotate at room temp as above for 5 min and then placed on a rotator at 70 cycles/min with a 1 inch stroke at 5° C. (temp previously equilibrated and documented at 5° C.)
At day 3, dark dense platelets were observed, indicating degranulation in the control groups (in both control groups A & B). A variation in platelet size was observed: small and dense indicating degranulation, vs. normal morphology pale plump platelets without the dense small degranulated appearance. Degranulation in response to cold storage is associated with the first step of the platelet activation GP-1 signal resulting in α-granule degranulation and massive extracellular release of vWF. (Suhasini el al., 2010). Table 4 presents a summary of additional cryoprotective agents scored for the effect on microscopic degranulation (20× high contrast lighting as above).

[1] = 6% final in ACD-Platelet mixture, 10 days at 5° C.

Row | Compound | effect of cryoprotective on platelet degranulation, 0.38% (6 days at 5° C.) | effect on microscopic degranulation, 0.38% (6 days at 5° C.) | effect of cryoprotective on platelet degranulation, 0.75% (6 days at 5° C.) | effect on microscopic degranulation, 0.75% (6 days at 5° C.) | effect of cryoprotective on platelet degranulation, 1.5% (6 days at 5° C.) | effect on microscopic degranulation, 1.5% (6 days at 5° C.) | effect of cryoprotective on platelet degranulation, 3% (6 days at 5° C.) | effect on microscopic degranulation, 3% (6 days at 5° C.) | 5° C. induced degranulation (3% and 6% glycerol, at 3, 6, and 10 days) | effect of cryoprotective on platelet degranulation, 3% (10 days at 5° C.) | effect on microscopic degranulation, 3% (10 days at 5° C.) | platelet colour / granule preservation (3% glycerol or 6% glycerol, day 10) | platelet colour / granule preservation (3% glycerol, day 3) | platelet colour / granule preservation (3% glycerol, day 6) | effect of cryoprotective on platelet degranulation, 6% [1] | effect on microscopic degranulation, 6% [1]
1 | trimethylolpropane ethoxylate [Trimethylopropane ethoxylate] | none | none | none | none | none | none | none | none |  |  |  |  |  |  |  | 
2 | pentaerythritol ethoxylate | none | none | none | none | none | none | none | none |  |  |  |  |  |  |  | 
3 | pentaerythritol propoxylate | fair (Fair = 25 to 50% of platelets are non-degranulated) | fair (Fair = 25 to 50% of platelets are non-degranulated) | none | none | none | none | none | none |  |  |  |  |  |  |  | 
4 | glycerol propoxylate | none | none | fair (Fair = 25 to 50% of platelets are non-degranulated) | fair (Fair = 25 to 50% of platelets are non-degranulated) | fair (Fair = 25 to 50% of platelets are non-degranulated) | fair (Fair = 25 to 50% of platelets are non-degranulated) | none | none |  |  |  |  |  |  |  | 
5 | OCC(O)CO [Glycerol] |  |  |  |  |  |  |  |  | prevented 5 °C induced degranulation | fair (Fair = 25 to 50% of platelets are non-degranulated) | fair (Fair = 25 to 50% of platelets are non-degranulated) | light color of platelets was observed, indicating granule preservation | light color of platelets was observed, indicating granule preservation | light color of platelets was observed, indicating granule preservation | good (Good = >80 are non-degranulated) | good (Good = >80 are non-degranulated)
6 | Methoxy PEG | none | none | none | none | good (Good = >80 are non-degranulated) | good (Good = >80 are non-degranulated) | good (Good = >80 are non-degranulated) | good (Good = >80 are non-degranulated) |  |  |  |  |  |  |  | 

From US10897891B2, “Compositions and methods for prolonged cell storage” (Board of Regents, The University of Texas System, priority 2015, dated 2021)
